Values of other authors in patent US7399639B2, “Sensors, and methods of making and using the same” (Massachusetts Institute of Technology, priority 2003, dated 2008).

How the values were obtained:
[1] = reported elsewhere; cited from earlier work
[2] = reported elsewhere, cited from earlier work
[3] = reported elsewhere; cited from earlier work; remark: listed apart in the source
[4] = reported elsewhere; cited from earlier work; remark: listed apart in the source

O=C(O)c1ccccc1-c1c2cc(Cl)c(=O)cc-2oc2c(CNc3ccccc3CN(Cc3ccccn3)Cc3ccccn3)c(O)ccc12 [Zinpyr-4]
pKa of the aniline nitrogen [1]: 7.2
quantum efficiency ([2]; metal-free): 0.05
increase in brightness upon Zn(II) binding [2]: 6.7 fold
quantum efficiency of Zn(II) complex [2]: 0.34
increase in integrated emission in response to the dual-metal buffering system [3]: ~5 fold
metal ion selectivity [4]: Zn(II) and Cd(II) selective
